Source: patent publication US10006080B2, “High-selectivity contact activation inhibitor based on infestin-4” (OBSCHESTVO S OGRANICHENNOY OTVETSTVENNOSTYU …, priority 2013, dated 2018)

Tests used:
[1] = system: contact-activated coagulation; experiment: APTT test in platelet free plasma of a healthy donor (kaolin-cephalin activation); type: biochemical, human; settings: for concentration at which the APTT increases nearly four-fold / concentration leading to 2.5-fold increase of APTT: normal plasma
Experimental: The assessment of activity of the polypeptide comprising the sequence of an infestin-4 mutant MutB by its inhibition of the contact-activated coagulation shall be considered further with a reference to FIG. 1. Native infestin-4 and mutants MutB and Mut15 were added into 3 separate samples of platelet free plasma (PFP) of a healthy donor, with subsequent measuring time of contact-activated clotting in the APTT test.
Blood plasma from healthy donors was processed according to standard protocols of blood collection for coagulation assays (Collection, Transport, and Processing of Blood Specimens for Testing Plasma-Based Coagulation Assays and Molecular Hemostasis Assays; Approved Guideline Fifth Edition by Clinical and Laboratory Standards Institute (CLSI) H21-A5 Vol. 28 No. 5). 0.38% sodium citrate was added into blood to block the calcium ions.
The APTT test was administered using the reagent kits “Coagulo-test” (Scientific-production association Renam, Moscow, Russia) and different concentrations of the following contact activation inhibitors: native infestin-4, MutB, and Mut15. To do that, 50 microliters of blood plasma from a healthy donor were mixed with 5.6 microliters of a 10× solution of different inhibitor concentrations and incubated for 15 minutes at 37° C. Then, according to the “Coagulo-test” manual, 25 microliters of the mixture were transferred into the cuvette of the coagulometer Helena-C2, with addition of 25 microliters of kaolin-cephalin mixture activating fXII in blood plasma. After incubation at 37° C. for 3 minutes, 25 microliters of the calcium chloride solution in the initial concentration of 25 mM was added, and the time of fibrin clot formation in the coagulometer cuvette was determined photometrically.
APTT dependences on concentrations of native infestin-4, MutB and Mut15 obtained in the same way as in Example 1, are shown on FIG. 1.

[2] = system: hypercoagulant PFP; experiment: Thrombodynamics analyzer T-2, clots far from the activator in hypercoagulant PFP (100 pM fXIa added); type: biochemical, human; settings: MutB 20 μM, CTI 15 μM; for time of appearance of clots far from the activator after activation: hypercoagulant PFP, nearly 5-8 minutes without inhibitor
Experimental: To assess the influence of the said contact activation inhibitors on appearance, far from the activator, of clots provoked by hypercoagulation, but not by contact activation of the sample by the cuvette walls, we added MutB (20 μM) and CTI (15 μM) into 2 separate samples of hypercoagulant PFP. Hypercoagulant PFP was obtained from normal frozen-thawed PFP by adding 100 pM of fXIa.
The influence of a polypeptide consisting of the sequence of an infestin-4 mutant MutB on the growth of fibrin clots in the samples of hypocoagulant, normal, and hypercoagulant blood plasma was studied using the laboratory diagnostic system «Thrombodynamics analyzer T-2» and the «Diagnostic kit for thrombodynamics investigation in blood plasma» (HemaCore, Moscow, Russia) according to the manual to the «Diagnostic kit for thrombodynamics investigation in blood plasma» (HemaCore, Moscow, Russia). Here, the said polypeptide was preliminarily proteolytically cleaved and chromatographically purified from thioredoxin (Trx). 15 minutes before the assay, the measuring cuvette, insert-activator with immobilized TF, and the reagents were held at 37° C. Standard investigation temperature was of 37° C. 15 minutes before the assay, 120 microliters of plasma were mixed with the investigated substances, MutB or CTI, for comparison, and put into a microtube. After mixing of the plasma with the substances, the tube with the plasma was put into a thermostat at 37° C. for 15 minutes. Immediately before the assay, the plasma was re-calcified: 120 microliters of the mixture of plasma and substances were put into a microtube with Reagent II (lyophilized solution of calcium acetate with an additive), and mixed up to complete Reagent II dilution. Then, 120 microliters of the mixture with Reagent II from the microtube was immediately transferred into the measuring cuvette. After that, the insert-activator was carefully inserted into the cuvette so that the surface with immobilized tissue factor would contact the plasma. Immediately after the contact of the coagulation activator with the blood plasma, the photography of the process of fibrin clot growth in plasma within the cuvette started. The cuvette-activator was a plate with the coagulation activator—tissue factor—immobilized at the low end surface (Fadeeva et al. 2010, Biochemistry (Moscow) 75:827-838). The automatic calculation of the assay results was performed using the software (user manual «Software for the laboratory diagnostic system «Thrombodynamics analyzer T-2», HemaCore, Moscow, Russia).

With “MutB: polypeptide comprising the sequence of infestin-4 mutant MutB (SEQ ID NO: 1), inhibition loop TRNFVA; high-selectivity fXIIa inhibitor (EVRNPCACTRNFVAVCGSDGKTYGNPCMLNCAAQTKVPGLKLVHEGRCQRSNVEQF; Infestin-4 mutant MutB)” the APTT ([1]; 10 μM inhibitor in PFP, 45 sec without inhibitor) was 120 s, the “activity in blood plasma in comparison to Mut15” value ([1]; APTT dose-dependence) was “nearly twofold” and the “activity in blood plasma in comparison with Mut15 and native infestin-4” value ([1]; APTT dose-dependence, FIG. 1) was “increased activity”. For the same molecule, the “concentration at which the APTT increases nearly four-fold” value [1] was 20 µM, the “concentration leading to 2.5-fold increase of APTT” value [1] was 10 µM and the “influence on appearance of clots far from the activator in hypercoagulant plasma” value [2] was “does not influence appearance of clots far from the activator”. For the same molecule, the “time of appearance of clots far from the activator after activation” value [2] was 5 to 8 min.

B1: corn trypsin inhibitor (other, UniProt P01088 29-138, looked up)
chain: SAGTSCVPGWAIPHNPLPSCRWYVTSRTCGIGPRLPWPELKRRCCRELADIPAYCRCTALSILMDGAIPPGPDAQLEGRLEDLPGCPREVQRGFAATLVTEAECNLATIS
notes: Isolated from corn; also called CTI
B1 was tested, and the “concentration at which the APTT increases nearly four-fold” value [1] was 15 µM, the “concentration leading to 2.5-fold increase of APTT” value [1] was 5 µM and the “influence on appearance of clots far from the activator in hypercoagulant plasma” value [2] was “delays appearance of clots far from the activator”. For the same molecule, the “time of appearance of clots far from the activator after activation” value [2] was 10 to 15 min.
